Results: US12497405B2, “Bicyclic heterocycle compounds methods of use thereof for the treatment of herpes viruses” (Merck Sharp & Dohme LLC, priority 2019, dated 2025)
Read-outs that look alike come from different tables or passages of the source.

What was measured:
[1] = molecular target: Human cytomegalovirus DNA polymerase (Human cytomegalovirus (strain AD169) (HHV-5) (Human herpesvirus 5), UniProt P08546); assay: CMV polymerase assay (AlphaLISA); format: biochemical; settings: HCMV polymerase 0.2 nM, 30 min pre-incubation, 60 minute at 37° C.
Protocol: (§1) Human cytomegalovirus and varicella zoster virus DNA polymerases were expressed via baculovirus vector in SF21 cells and purified. Heterodimeric nucleic acid substrate used in the herpesvirus polymerase reactions were generated by annealing a 59-mer template to a 17-mer digoxigenin-labeled primer. Polymerase (HCMV final concentration of 0.2 nM; VZV final concentration of 0.4 nM) was combined with an inhibitor compound or DMSO in assay buffer (10 mM HEPES, pH 7.5, 25 mM KCl, 25 mM NaCl, 5 mM MgCl2, 5% glycerol, 0.67 mg/ml bovine serum albumin, and 1 mM tris(2-carboxyethyl)phosphine)), and this mixture was pre-incubated for 30 minutes at room temperature in 384-well microtiter plates. The polymerization reaction was initiated by the addition of template/primer substrate (final concentration: 1.6 nM), and dNTPs (final concentration: 24 nM dCTP, 24 nMdGTP, 16 nM dATP, 16 nM dTTP, and 0.8 nM biotin-dUTP). After a 60 minute incubation period at 37° C., the reactions were terminated using quench buffer (25 mM HEPES pH 7.5, 100 mM NaCl, 0.25% Tween-20, 12 mM EDTA, and 1 mg/ml bovine serum albumin). Incorporation of biotinylated UTP was detected with 2.5-5 μg/mL anti-DIG AlphaLISA acceptor beads and 5-10 μg/mL streptavidin AlphaLISA donor beads (PerkinElmer). Compound effects were normalized to the window defined by the controls (DMSO only and pre-quenched wells), and were fit using a 4-parameter algorithm to report an IC50.

[2] = molecular target: varicella zoster virus DNA polymerase (Varicella-zoster virus (strain Dumas) (HHV-3) (Human herpesvirus 3), UniProt P09252); assay: VZV polymerase assay (AlphaLISA); format: biochemical; settings: VZV polymerase 0.4 nM, 30 min pre-incubation, 60 minute at 37° C.
Protocol: as §1

CMV = assay: Viral qPCR assay, CMV; format: cell-based; settings: infected cells, viral genome copies by qPCR normalized to PPIA, read-out: CMV Cell EC50
Protocol: (§2) MRC5 cells, Vero cells, and MeWo cells were obtained from ATCC, and were maintained at 37° C./5% CO2/90% relative humidity in Minimal Essential Medium with 10% fetal bovine serum, […] L-glutamine, 100 units/ml penicillin and 100 ug/ml streptomycin. Assay plates were prepared by dispensing compounds dissolved in DMSO into wells of 384 well collagen-coated plates using an ECHO acoustic dispenser. Each test compound was tested in a 10-point, serial 3-fold dilution. Controls included uninfected cells and infected cells treated only with DMSO. Assays were initiated by mixing selected cells, in suspension, with virus, and dispensing 50 μl/well infected cells to pre-plated compounds. Plates were incubated at 37° C./5% CO2/90% relative humidity for ˜72 hrs to permit genomic replication, and infected cells were lysed by the addition of an equal volume of lysis buffer (10 mM Tris-HCl, pH8, 50 mM KCl, 2 mM MgCl2, 0.45% NP-40, 0.45% Tween-20, and 100 µg/ml proteinase K). An aliquot of the lysate was then transferred to a 384-well PCR plate and incubated at 56° C. for 1 hour, and then at 95° C. for 10 minutes. Levels of the selected viral gene and of the cellular control, PPIA, were measured in separate 10 μl qPCR assays using TaqMan® Gene Expression Master Mix (Applied Biosystems), and an 7900HT Fast Real-Time PCR System with 384-Well Block Module. 7-point, serial 10-fold dilutions of a plasmid standard were run on each plate to generate a standard curve, and genome copies numbers were calculated by plotting experimental Ct onto linear regression of the standard curve. Viral genome copy numbers were normalized by cellular control copy number, and compound effects were normalized to the window defined by the controls. Calculated % effects were fit using a 4-parameter algorithm, and EC50 was reported.

HSV1 = assay: Viral qPCR assay, HSV1; format: cell-based; settings: infected cells, viral genome copies by qPCR normalized to PPIA, read-out: HSV1 Cell EC50
Protocol: as §2

HSV2 = assay: Viral qPCR assay, HSV2; format: cell-based; settings: infected cells, viral genome copies by qPCR normalized to PPIA, read-out: HSV2 Cell EC50
Protocol: as §2

Row | SMILES | IC50 [1] [nM] | IC50 [2] [nM] | EC50 (CMV; Human betaherpesvirus 5, 72 h) [nM] | EC50 (HSV1; Human alphaherpesvirus 1, 72 h) [nM] | EC50 (HSV2; Human alphaherpesvirus 2, 72 h) [nM] | EC50 (CMV; ~72 hrs) [nM] | EC50 (HSV1; ~72 hrs) [nM] | EC50 (HSV2; ~72 hrs) [nM]
1 | C[C@@H]1CN(C)CCN1c1cc2c(=O)n(Cc3ccc(Cl)cc3)cnc2cc1-c1cnn(C(F)F)c1 [Example 50] | 545 | 422 |  |  |  |  |  | 
2 | C[C@@H]1CN(C)CCN1c1cc(CC(C)(C)O)c2ncn(Cc3ccc(Cl)cc3)c(=O)c2c1 [Example 55] | 109 | 139 |  |  |  |  |  | 
3 | O=C1OC[C@@H]2C[C@@H](Oc3ccc4c(CO)cn(Cc5ccc(Cl)cc5)c(=O)c4c3)CCN12 [Example 29] | 21 | 13 | 240 | 256 |  |  |  | 
4 | CC(c1ccc(Cl)cc1)n1ccc2ncc(O[C@H]3CCN4C(=O)OC[C@@H]4C3)cc2c1=O (single isomer, unassigned) [Example 30] | 207 | 157 |  |  |  |  |  | 
5 | Cc1nc2c(CC(C)(C)O)cc(O[C@H]3CCN4C(=O)OC[C@@H]4C3)cc2c(=O)n1Cc1ccc(Cl)cc1 [Example 67] | 22 | 53 |  |  |  |  |  | 
6 | COc1ccc(-c2cc3ncn(Cc4ccc(Cl)cc4)c(=O)c3cc2O[C@H]2CCN3C(=O)OC[C@@H]3C2)cn1 [Example 57] | 43 | 43 |  |  |  |  |  | 
7 | C[C@@H]1CN(C2CCOCC2)CCN1c1ccc2ncn(Cc3ccc(Cl)cc3)c(=O)c2c1 [Example 43] | 9820 | 4960 |  |  |  |  |  | 
8 | Cc1nc2cc(C#N)c(N3CCN(C)C[C@H]3C)cc2c(=O)n1Cc1ccc(C#N)cc1F [Example 63] | 235 |  | 498 | 3150 | 3710 |  |  | 
9 | CN1CCN(c2ccc3ccn(Cc4ccc(Cl)cc4)c(=O)c3c2)CC1 [Example 21] | 5850 | 7330 |  |  |  |  |  | 
10 | Cc1nc2cc(-c3cc4n(n3)C(C(F)(F)F)CN(C)C4)c(O[C@H]3CCN4C(=O)OC[C@@H]4C3)cc2c(=O)n1Cc1ccc(Cl)cc1 (single isomer, unassigned) [Example 151] |  |  | 178 | 233 | 176 |  |  | 
11 | O=C1OC[C@@H]2C[C@@H](Oc3cc4c(=O)n(Cc5ccc(Cl)cc5)c(OCCO)nc4cc3-c3cnn(C(F)F)c3)CCN12 [Example 102] |  |  | 135 | 71 | 37 |  |  | 
12 | Cc1nc2cc(-c3nc4ncccn4n3)c(O[C@H]3CCN4C(=O)OC[C@@H]4C3)cc2c(=O)n1Cc1ccc(Cl)cc1 [Example 103] |  |  | 83 | 55 | 55 |  |  | 
13 | O=C1OC[C@@H]2C[C@@H](Oc3cc4c(=O)n(Cc5ccc(Cl)cc5)c(OCC5CC5)nc4cc3-c3cnn(C(F)F)c3)CCN12 [Example 135] |  |  | 939 | 799 | 649 |  |  | 
14 | Cc1nc2cc(-c3nc4ccccn4n3)c(O[C@H]3CCN4C(=O)OC[C@@H]4C3)cc2c(=O)n1Cc1ccc(Cl)cc1 [Example 105] |  |  | 112 | 48 | 55 |  |  | 
15 | COc1ncc(-c2cc3nc(C)n(Cc4ccc(Cl)cc4)c(=O)c3cc2O[C@H]2CCN3C(=O)OC[C@@H]3C2)cn1 [Example 5] | 15 |  |  |  |  | 107 | 131 | 85
16 | CC(=O)N1CC[C@@H](Oc2cnc3ccn(Cc4ccc(Cl)cc4)c(=O)c3c2)C[C@H]1C (single isomer, unassigned) [Example 35] | 66 | 82 |  |  |  |  |  | 
17 | O=C1OC[C@@H]2C[C@@H](Oc3cc4c(=O)n(Cc5ccc(Cl)cc5)c(OC5CCC(O)CC5)nc4cc3-c3cnn(C(F)F)c3)CCN12 (single isomer, unassigned) [Example 143] |  |  |  |  |  | 95 | 213 | 181
18 | Cc1nc2cc(-c3cnn(C(F)F)c3)c(O[C@H]3CCN4C(=O)OC[C@@H]4C3)cc2c(=O)n1Cc1ccc(Cl)c(CO)c1 [Example 155] |  |  | 1340 | 5100 | 5400 |  |  | 
19 | N#Cc1nc2cc(-c3cnn(C(F)F)c3)c(O[C@H]3CCN4C(=O)OC[C@@H]4C3)cc2c(=O)n1Cc1ccc(Cl)cc1 [Example 106] |  |  | 143 | 102 | 73 |  |  | 
20 | Cc1cnc(-c2cc3nc(C)n(Cc4ccc(Cl)cc4)c(=O)c3cc2O[C@H]2CCN3C(=O)OC[C@@H]3C2)cn1 [Example 128] |  |  | 114 | 217 | 131 |  |  | 
21 | CC(C)(O)Cc1nc2cc(-c3cnn(C(F)F)c3)c(O[C@H]3CCN4C(=O)OC[C@@H]4C3)cc2c(=O)n1Cc1ccc(Cl)cc1 [Example 140] |  |  | 2660 | 4310 | 3760 |  |  | 
22 | O=C1OC[C@@H]2C[C@@H](Oc3cc4c(=O)n(Cc5ccc(Cl)cc5)c(N5CCOCC5)nc4cc3-c3cnn(C(F)F)c3)CCN12 [Example 142] |  |  | 129 | 154 | 38 |  |  | 
23 | Cc1nc2cc(-c3cnc(C(C)(C)O)nc3)c(O[C@H]3CCN4C(=O)OC[C@@H]4C3)cc2c(=O)n1Cc1ccc(Cl)cc1 [Example 154] |  |  | 180 | 403 | 485 |  |  | 
24 | Nc1nc2cc(-c3cnn(C(F)F)c3)c(O[C@H]3CCN4C(=O)OC[C@@H]4C3)cc2c(=O)n1Cc1ccc(Cl)cc1 [Example 111] |  |  | 85 | 101 | 60 |  |  | 
25 | O=C1OC[C@@H]2C[C@@H](Oc3cc4c(=O)n(Cc5ccc(Cl)cc5)c(CNCC(F)(F)F)nc4cc3-c3cnn(C(F)F)c3)CCN12 [Example 133] |  |  | 167 | 238 | 106 |  |  | 
26 | Cc1ccc(-c2cc3nc(C)n(Cc4ccc(Cl)cc4)c(=O)c3cc2O[C@H]2CCN3C(=O)OC[C@@H]3C2)nn1 [Example 110] |  |  | 200 | 288 | 133 |  |  | 
27 | Cc1nc2cc(-c3cncnc3)c(O[C@H]3CCN4C(=O)OC[C@@H]4C3)cc2c(=O)n1Cc1ccc(Cl)cc1 [Example 118] |  |  | 135 | 244 | 180 |  |  | 
28 | COc1cnc(-c2cc3nc(C)n(Cc4ccc(Cl)cc4)c(=O)c3cc2O[C@H]2CCN3C(=O)OC[C@@H]3C2)cn1 [Example 113] |  |  | 2970 | 2680 | 1690 |  |  | 
29 | O=C1OC[C@@H]2C[C@@H](Oc3cc4c(=O)n(Cc5ccc(Cl)cc5)cnc4nc3-c3cnco3)CCN12 [Example 37] |  |  | 20 | 19 | 11 |  |  | 
